Test results: patent publication US20260337245A1, “POLYPEPTIDE OR ANALOG THEREOF AND USE THEREOF” (Shenzhen Bay Laboratory, priority 2024, published 2026)
Starred links: 1 amine or outer side, 2 acyl side, 3 side chain; linkers in the order of their positions; H or OH if unused. Positions of bridges follow the written chain, without caps; N, C: chain ends. Non-standard residues stand in square brackets, D forms with d. Residues, ends and D or L forms follow the SMILES beside them. X1 = O=C(O)CCCCCCCCCCCCCCCCCCC(=O)N[C@@H](CCCCNC(=O)COCCOCCNC(=O)COCCOCCNC(=O)CCC(=O)N(CCNC(=O)C[*:1])CCNC(=O)C[*:2])C(=O)O; Aib = CC(C)(N)C(=O)O

Key:
AMY3R = target: T1, AMY3R (Homo sapiens, UniProt P30988); test: HTRF cAMP assay, AMY3R; type: cell-based; details: HEK293/pGM-CREB-L-Luc/AMY3R pool, read-out: IC50 of receptor AMY3R
T1 construct: expressed in transfected cells
T1 sequence (P30988 25-474): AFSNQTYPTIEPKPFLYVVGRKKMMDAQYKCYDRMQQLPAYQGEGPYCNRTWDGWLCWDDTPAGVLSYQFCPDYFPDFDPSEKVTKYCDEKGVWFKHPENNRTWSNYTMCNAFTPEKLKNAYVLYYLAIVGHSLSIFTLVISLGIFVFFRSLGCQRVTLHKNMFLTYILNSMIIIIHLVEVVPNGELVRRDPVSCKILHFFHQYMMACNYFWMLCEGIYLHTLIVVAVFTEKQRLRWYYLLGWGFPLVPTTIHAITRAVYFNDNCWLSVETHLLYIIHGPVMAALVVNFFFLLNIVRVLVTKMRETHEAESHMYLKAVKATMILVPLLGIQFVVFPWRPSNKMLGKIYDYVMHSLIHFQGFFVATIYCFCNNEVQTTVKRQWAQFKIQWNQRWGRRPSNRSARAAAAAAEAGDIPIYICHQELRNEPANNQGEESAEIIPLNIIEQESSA
T1 sequence (O60896 24-148 partner): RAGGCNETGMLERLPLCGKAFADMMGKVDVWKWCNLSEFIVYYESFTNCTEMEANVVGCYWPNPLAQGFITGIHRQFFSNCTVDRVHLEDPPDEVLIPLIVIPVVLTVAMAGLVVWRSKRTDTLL
From the text: (§1) 2. The polypeptide derivatives prepared in Example 1 and Example 2 of the present disclosure can bind to the target AMYR and CTR receptors on the cell membrane, activate the receptors and release cAMP. Therefore, the activity of the analyte can be determined by using an HTRF (homogeneous time-resolved fluorescence) method and using a cAMP detection kit. The specific steps were as follows:
(§2) A stable transfected cell line of HEK293/pGM-CREB-L-Luc/AMY3R pool and HEK293/pGM-CREB-L-Luc/CTR pool was constructed. The polypeptide derivatives (i.e., AMY-001 to AMY-041) prepared in Examples 1 and 2 were subjected to 5-fold serial dilution from a maximum of 1000 nM to prepare a dilution series containing 8 to 11 concentration gradients. Cagrilintide and sCT were selected as positive controls for testing, and a dilution series was prepared according to the same method for testing. The test cell lines were selected and treated with cAMP-specific trypsin for digestion, and then suspended with 3 mL of serum-free DMEM medium by pipetting, and the cells were counted. 5 μL of IBMX (prepared with serum-free DMEM medium, 0.5 mM) and test cells (5 μL/7500 cells/well) were sequentially added to a 384-well plate, incubated under the conditions of 37° C., 5% CO2 for 30 minutes, then added with cAMP-d2 (5 μL, 1×) and Anti-cAMP-Cryptate (5 μL, 1×) and placed at room temperature for 1 hour. A HTRF value was determined by a chemiluminescence microplate reader, and the results were recorded. An activation curve was plotted using GraphPad Prism software to calculate an IC50 value of each polypeptide derivative. […] The IC50 values of some polypeptides were exemplarily shown in this example, see Table 3, FIG. 2 and FIG. 3 for details.

CTR = target: T2, CTR (Homo sapiens, UniProt P30988); test: HTRF cAMP assay, CTR; type: cell-based; details: HEK293/pGM-CREB-L-Luc/CTR pool, read-out: IC50 of receptor CTR
T2 construct: expressed in transfected cells
T2 sequence (P30988 25-474): T1 sequence (P30988 25-474)
From the text: as §1, §2

EC50 (AMY3R) [nM]	EC50 (CTR) [nM]	Structure (SMILES)
0.0671	0.0906	CC(=O)N[C@@H](C)C(=O)N[C@@H](CO)C(=O)N[C@@H](Cc1c[nH]cn1)C(=O)N[C@@H](CC(C)C)C(=O)N[C@@H](CO)C(=O)N[C@H](C(=O)N[C@H]1CSCC(=O)NCCN(C(=O)CCC(=O)NCCOCCOCC(=O)NCCOCCOCC(=O)NCCCC[C@H](NC(=O)CCCCCCCCCCCCCCCCCCC(=O)O)C(=O)O)CCNC(=O)CSC[C@@H](C(=O)N[C@@H](CCC(=O)O)C(=O)N[C@@H](CC(C)C)C(=O)N[C@@H](Cc2c[nH]cn2)C(=O)N[C@@H](CCCCN)C(=O)N[C@@H](CC(C)C)C(=O)NC(C)(C)C(=O)N[C@@H](CC(=O)O)C(=O)N[C@@H](Cc2ccc(O)cc2)C(=O)N2CCC[C@H]2C(=O)N[C@@H](CCCNC(=N)N)C(=O)N[C@H](C(=O)N[C@@H](CC(=O)O)C(=O)N[C@H](C(=O)NCC(=O)N[C@@H](C)C(=O)NCC(=O)N[C@@H](CO)C(=O)N2CCC[C@H]2C(N)=O)C(C)C)[C@@H](C)O)NC(=O)[C@H](CO)NC(=O)[C@H](CC(C)C)NC(=O)[C@H](CCCNC(=N)N)NC(=O)CNC(=O)[C@H](CC(C)C)NC(=O)[C@H](C(C)C)NC1=O)[C@@H](C)O [AMY-002, Ac ASHLSTCVLGRLSCELHKL-Aib-DYPRTDVGAGSP-NH2] (Ac-ASHLSTCVLGRLSCELHKL[Aib]DYPRTDVGAGSP-NH2; linker 7-14 via X1)
0.198	0.303	CC(=O)N[C@@H](C)C(=O)N[C@@H](CO)C(=O)N[C@@H](Cc1c[nH]cn1)C(=O)N[C@@H](CC(C)C)C(=O)N[C@@H](CO)C(=O)N[C@H](C(=O)N[C@@H](C)C(=O)N[C@H](C(=O)N[C@@H](CC(C)C)C(=O)N[C@H]1CSCC(=O)NCCN(C(=O)CCC(=O)NCCOCCOCC(=O)NCCOCCOCC(=O)NCCCC[C@H](NC(=O)CCCCCCCCCCCCCCCCCCC(=O)O)C(=O)O)CCNC(=O)CSC[C@@H](C(=O)N[C@@H](CCCCN)C(=O)N[C@@H](CC(C)C)C(=O)NC(C)(C)C(=O)N[C@@H](CC(=O)O)C(=O)N[C@@H](Cc2ccc(O)cc2)C(=O)N2CCC[C@H]2C(=O)N[C@@H](CCCNC(=N)N)C(=O)N[C@H](C(=O)N[C@@H](CC(=O)O)C(=O)N[C@H](C(=O)NCC(=O)N[C@@H](C)C(=O)NCC(=O)N[C@@H](CO)C(=O)N2CCC[C@H]2C(N)=O)C(C)C)[C@@H](C)O)NC(=O)[C@H](CC(C)C)NC(=O)[C@H](CCC(=O)O)NC(=O)[C@H](C)NC(=O)[C@H](CO)NC(=O)[C@H](CC(C)C)NC(=O)[C@H](CCCNC(=N)N)NC1=O)C(C)C)[C@@H](C)O [AMY-005, Ac-ASHLSTAVLCRLSAELCKL-Aib-DYPRTDVGAGSP-NH2] (Ac-ASHLSTAVLCRLSAELCKL[Aib]DYPRTDVGAGSP-NH2; linker 10-17 via X1)
0.0254	0.0107	CC(=O)N[C@@H](C)C(=O)N[C@@H](CO)C(=O)N[C@@H](Cc1c[nH]cn1)C(=O)N[C@@H](CC(C)C)C(=O)N[C@@H](CO)C(=O)N[C@H](C(=O)N[C@@H](C)C(=O)N[C@H](C(=O)N[C@@H](CC(C)C)C(=O)NCC(=O)N[C@H]1CSCC(=O)NCCN(C(=O)CCC(=O)NCCOCCOCC(=O)NCCOCCOCC(=O)NCCCC[C@H](NC(=O)CCCCCCCCCCCCCCCCCCC(=O)O)C(=O)O)CCNC(=O)CSC[C@@H](C(=O)N[C@@H](CC(C)C)C(=O)NC(C)(C)C(=O)N[C@@H](CC(=O)O)C(=O)N[C@@H](Cc2ccc(O)cc2)C(=O)N2CCC[C@H]2C(=O)N[C@@H](CCCNC(=N)N)C(=O)N[C@H](C(=O)N[C@@H](CC(=O)O)C(=O)N[C@H](C(=O)NCC(=O)N[C@@H](C)C(=O)NCC(=O)N[C@@H](CO)C(=O)N2CCC[C@H]2C(N)=O)C(C)C)[C@@H](C)O)NC(=O)[C@H](Cc2c[nH]cn2)NC(=O)[C@H](CC(C)C)NC(=O)[C@H](CCC(=O)O)NC(=O)[C@H](C)NC(=O)[C@H](CO)NC(=O)[C@H](CC(C)C)NC1=O)C(C)C)[C@@H](C)O [AMY-006, Ac-ASHLSTAVLGCLSAELHCL-Aib-DYPRTDVGAGSP-NH2] (Ac-ASHLSTAVLGCLSAELHCL[Aib]DYPRTDVGAGSP-NH2; linker 11-18 via X1)
0.349	0.262	CC(=O)N[C@@H](C)C(=O)N[C@@H](CO)C(=O)N[C@@H](Cc1c[nH]cn1)C(=O)N[C@@H](CC(C)C)C(=O)N[C@@H](CO)C(=O)N[C@H](C(=O)N[C@@H](C)C(=O)N[C@H](C(=O)N[C@@H](CC(C)C)C(=O)NCC(=O)N[C@@H](CCCNC(=N)N)C(=O)N[C@H]1CSCC(=O)NCCN(C(=O)CCC(=O)NCCOCCOCC(=O)NCCOCCOCC(=O)NCCCC[C@H](NC(=O)CCCCCCCCCCCCCCCCCCC(=O)O)C(=O)O)CCNC(=O)CSC[C@@H](C(=O)NC(C)(C)C(=O)N[C@@H](CC(=O)O)C(=O)N[C@@H](Cc2ccc(O)cc2)C(=O)N2CCC[C@H]2C(=O)N[C@@H](CCCNC(=N)N)C(=O)N[C@H](C(=O)N[C@@H](CC(=O)O)C(=O)N[C@H](C(=O)NCC(=O)N[C@@H](C)C(=O)NCC(=O)N[C@@H](CO)C(=O)N2CCC[C@H]2C(N)=O)C(C)C)[C@@H](C)O)NC(=O)[C@H](CCCCN)NC(=O)[C@H](Cc2c[nH]cn2)NC(=O)[C@H](CC(C)C)NC(=O)[C@H](CCC(=O)O)NC(=O)[C@H](C)NC(=O)[C@H](CO)NC1=O)C(C)C)[C@@H](C)O [AMY-007, Ac-ASHLSTAVLGRCSAELHKC-Aib-DYPRTDVGAGSP-NH2] (Ac-ASHLSTAVLGRCSAELHKC[Aib]DYPRTDVGAGSP-NH2; linker 12-19 via X1)
0.0713	0.0502	CC(=O)N[C@@H](C)C(=O)N[C@@H](CO)C(=O)N[C@@H](Cc1c[nH]cn1)C(=O)N[C@@H](CC(C)C)C(=O)N[C@@H](CO)C(=O)N[C@H](C(=O)N[C@@H](C)C(=O)N[C@H](C(=O)N[C@@H](CC(C)C)C(=O)NCC(=O)N[C@@H](CCCNC(=N)N)C(=O)N[C@@H](CC(C)C)C(=O)N[C@H]1CSCC(=O)NCCN(C(=O)CCC(=O)NCCOCCOCC(=O)NCCOCCOCC(=O)NCCCC[C@H](NC(=O)CCCCCCCCCCCCCCCCCCC(=O)O)C(=O)O)CCNC(=O)CSC[C@@H](C(=O)N[C@@H](CC(=O)O)C(=O)N[C@@H](Cc2ccc(O)cc2)C(=O)N2CCC[C@H]2C(=O)N[C@@H](CCCNC(=N)N)C(=O)N[C@H](C(=O)N[C@@H](CC(=O)O)C(=O)N[C@H](C(=O)NCC(=O)N[C@@H](C)C(=O)NCC(=O)N[C@@H](CO)C(=O)N2CCC[C@H]2C(N)=O)C(C)C)[C@@H](C)O)NC(=O)[C@H](CC(C)C)NC(=O)[C@H](CCCCN)NC(=O)[C@H](Cc2c[nH]cn2)NC(=O)[C@H](CC(C)C)NC(=O)[C@H](CCC(=O)O)NC(=O)[C@H](C)NC1=O)C(C)C)[C@@H](C)O [AMY-008] (Ac-ASHLSTAVLGRLCAELHKLCDYPRTDVGAGSP-NH2; linker 13-20 via X1)
0.0123	–	CC[C@H](C)[C@H](NC(=O)[C@@H]1CCCN1C(=O)CNC(=O)[C@H](Cc1ccccc1)NC(=O)[C@H](CC(N)=O)NC(=O)[C@H](CC(N)=O)NC(=O)[C@H](CO)NC(=O)[C@H](CO)NC(=O)[C@H](Cc1c[nH]cn1)NC(=O)[C@H](CCCNC(=N)N)NC(=O)[C@H](CC(C)C)NC(=O)[C@H](Cc1ccccc1)NC(=O)[C@H](CCC(=O)O)NC(=O)[C@H](C)NC(=O)[C@H](CC(C)C)NC(=O)[C@H](CCCNC(=N)N)NC(=O)[C@H](CCC(N)=O)NC(=O)[C@@H](NC(=O)[C@H](C)NC(=O)[C@@H]1CSSC[C@H](NC(=O)[C@H](CCCCN)NC(=O)CC[C@H](NC(=O)CCCCCCCCCCCCCCCCCCC(=O)O)C(=O)O)C(=O)N[C@@H](CC(N)=O)C(=O)N[C@@H]([C@@H](C)O)C(=O)N[C@@H](C)C(=O)N[C@@H]([C@@H](C)O)C(=O)N1)[C@@H](C)O)C(=O)N[C@@H](CC(C)C)C(=O)N1CCC[C@H]1C(=O)N1CCC[C@H]1C(=O)N[C@H](C(=O)N[C@@H](CC(N)=O)C(=O)N[C@H](C(=O)NCC(=O)N[C@@H](CO)C(=O)N[C@@H](CC(N)=O)C(=O)N[C@H](C(=O)N1CCC[C@H]1C(N)=O)[C@@H](C)O)C(C)C)[C@@H](C)O [Cagrilintide, reference compound]
